SMILES strings stand for the structures. pEC50: −log10 of the molar value. Activity calls are given as the source filed them. How the calls were made is not given here. Bounds are passed on as bounds.

This assay relates to Saccharomyces cerevisiae lifespan extension, no nicotinamide. The experiment in a line: yeast lifespan extension without nicotinamide, confirmation, yeast lifespan extension project, S. cerevisiae (AID 812).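 Further: growth read as optical density after 42 hours of incubation at 30C.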
One may read the EC50 as the concentration that produces a half-maximal response. On to `O=C1C(=C(O)c2ccccc2)C(=O)c2ccccc21`, for which the EC50 was > 40 µM (inactive).
Take `O=C1OC2(CCCCC2)OC(=O)C1=CNc1nc2ccccc2s1`: the EC50 is > 40 µM (inactive).
Same read-out and setting: the same measure for `CN(c1ccccc1)c1nc2ccsc2c(=O)s1`: > 40 µM (inactive); for `COCCN(CCOC)S(=O)(=O)c1ccc(C(=O)Nc2sc3c(c2C(N)=O)CCCCC3)cc1`: > 40 µM (inactive).
Same read-out and setting: the same measure for `O=C(CSc1nc2ccccc2o1)c1cc2ccccc2oc1=O`: > 40 µM (inactive); for `O=C(NCc1ccco1)c1c(O)c2cccc3c2n(c1=O)CCC3`: > 40 µM (inactive); for `C=CCn1c(C)cc(C(=O)CSc2nc3ccccc3c(=O)[nH]2)c1C`: > 40 µM (inactive).
On the same count and under the same terms, the same measure for `CC(=Nc1ccc2c(c1)nc(CO)n2C)C1=C(O)CC(C)(C)CC1=O`: > 40 µM (inactive); for `O=C(c1ccccc1)c1nc2ccccc2[nH]c1=O`: > 40 µM (inactive).
With `O=C(O)CCCCCN1C(=O)/C(=C\c2ccncc2)SC1=S`, the EC50 is > 40 µM (inactive).
On the same count and under the same terms, as for `CCCCCCN1CC(C(=O)OCC)C(=O)C1=O` (centres undefined), the figure is > 40 µM (inactive); as for `C=C(C(=O)c1ccccc1)C(C)CC(=O)c1ccccc1` (centres undefined), > 40 µM (inactive); as for `O=C(N/N=C/c1ccccc1)c1c(O)c2ccccc2[nH]c1=O`, > 40 µM (inactive).
Take `CCC(C)OC(=O)C1C(c2ccccc2)C(C(=O)O)C1c1ccccc1` (centres undefined): the EC50 was > 40 µM (inactive).
Same read-out and setting: the same measure for `Cc1cc2c(c(=O)n1CCc1ccccc1)C(c1ccco1)C(C#N)=C(N)O2` (centres undefined): > 40 µM (inactive).
Turning to `COc1ccc(C(=O)C(CN2CCOCC2)c2ccccc2)cc1F` (centres undefined), the EC50 is > 40 µM (inactive).
Regarding `CN(C)c1ccc(S(=O)(=O)c2ccc(Cl)cc2)cc1`, the EC50 was > 40 µM (inactive).
On to `CC(=O)Oc1c(C(=O)c2nnc(C)o2)c(=O)n(C)c2ccccc12`, for which the EC50 is > 40 µM (inactive).
Still for that read-out and setting: as for `CCCc1cc(=O)oc2cc(C)c(CN3CCCC3)c(O)c12`, the figure is > 40 µM (inactive).
Same read-out and setting: as for `Cc1[nH]n(-c2ccccc2)c(=O)c1N=Nc1nccs1`, the figure is > 40 µM (inactive); as for `Oc1ccc2ccccc2c1C=Nc1ccccc1-c1nc2ccccc2[nH]1`, > 40 µM (inactive).
On to `Cn1c(=O)c(=O)n(C)c2cc(S(=O)(=O)N3CCN(Cc4ccccc4)CC3)ccc21`, for which the EC50 is > 40 µM (inactive).
Still for that read-out and setting: the same measure for `O=C(N/N=C/c1cccc(F)c1)c1c(O)c2ccccc2[nH]c1=O`: > 40 µM (inactive); for `CCOC(=O)C1C(=O)C(C(C)=O)C(=O)CC1CC(C)SCC` (centres undefined): > 40 µM (inactive); for `O=Cc1cc2ccccc2nc1SCc1ccc(Cl)cc1`: > 40 µM (inactive).
The same measure, in the same setting: the same measure for `Cc1ccc(C(=O)C2C(=O)c3ccccc3C2=O)cc1`: > 40 µM (inactive).
On the same count and under the same terms, the same measure for `COC(=O)c1sc(S(=O)(=O)Nc2ccc(Br)cc2)c(C(=O)OC)c1C`: > 40 µM (inactive); for `COc1cc(Br)cc(-c2nc3c(c(=O)[nH]c(=O)n3Cc3ccccc3)n2C)c1O`: > 40 µM (inactive); for `O=C1CC(c2ccccc2)CC(O)=C1C=NCCN1CCN(C(=O)Cc2ccccc2)CC1` (centres undefined): > 40 µM (inactive).
As for `O=C1c2ccccc2C(=O)N1c1ncc(Cc2ccc(Cl)cc2)s1`, the EC50 is > 40 µM (inactive).
Same read-out and setting: the same measure for `CCCCSc1nc(O)c(C2OC(=O)c3c2ccc(OC)c3OC)c(=O)n1C` (centres undefined): > 40 µM (inactive); for `CCOC(=O)c1ccc2c(c1)n(CCO)c(C)[n+]2CC`: > 40 µM (inactive); for `CC(C)c1ccc(C2=C(O)c3ccccc3C(=O)C2=O)cc1`: > 40 µM (inactive).
The same measure, in the same setting: the same measure for `O=C(Nc1cccc(Cl)c1)c1ccc2c(=O)n3c(nc2c1)CCCCC3`: > 40 µM (inactive); for `CCCCn1c(=O)c2c(O)cc(=O)oc2c2ccccc21`: > 40 µM (inactive).
The same measure, in the same setting: as for `CCC(=NCCc1c(C)[nH]c2ccc(C)cc12)C1=C(O)CC(c2ccccc2)CC1=O` (centres undefined), the figure is > 40 µM (inactive).
As to `O=C(NCc1cccnc1)c1ccc(S(=O)(=O)N2CCCCC2)cc1`, the EC50 was > 40 µM (inactive).
The same measure, in the same setting: the same measure for `CN1C(=O)C(C(=O)Nc2ccccc2F)c2ccccc21` (centres undefined): > 40 µM (inactive).
Turning to `O=[N+]([O-])c1cc2oc3c(c2c(C=NCc2ccncc2)c1O)CCCC3`, the EC50 is > 40 µM (inactive).
In the case of `O=C(CCc1ccccc1)NCCCN1CCOCC1`, the EC50 was > 40 µM (inactive).
The same measure, in the same setting: the same measure for `O=C(NCCc1ccccn1)C(F)(F)C(F)(F)C(F)(F)C(F)(F)C(F)(F)C(F)(F)C(F)(F)C(F)F`: > 40 µM (inactive).
The same measure, in the same setting: as for `COc1ccc(OC)c(C2C(C(C)=O)=C(O)C(=O)N2Cc2cccnc2)c1` (centres undefined), the figure is > 40 µM (inactive); as for `O=c1[nH]c2ccccc2nc1Cc1ccccc1`, > 40 µM (inactive); as for `COc1ccc(CN2CCN(C(=O)COc3cccc(C)c3)CC2)c(OC)c1`, > 40 µM (inactive).
Same read-out and setting: the same measure for `N#Cc1ccc(-c2ccc(OCC(=O)NCCc3ccccc3)cc2)cc1`: > 40 µM (inactive).
Regarding `COc1ccc(CCN2C(=O)C(O)=C(C(=O)c3ccco3)C2c2cccs2)cc1OC` (centres undefined), the EC50 is > 40 µM (inactive).
For `CCCCn1c(/N=C/c2ccccc2NS(=O)(=O)c2ccc(C)cc2)nc2ccccc21`, the EC50 was > 40 µM (inactive).
In the case of `Cc1ccc(C(=O)/C=C\C(=O)c2ccc(C)cc2)cc1`, the EC50 was > 40 µM (inactive).
On to `CCCCC(=Nc1ccccc1OC)C1=C(O)CC(c2ccccc2)CC1=O` (centres undefined), for which the EC50 is > 40 µM (inactive).
On the same count and under the same terms, the same measure for `CCCCCCCCn1c(=O)c(C(=O)OCC)c(O)c2ccccc21`: > 40 µM (inactive).
`CCCc1nc2c(c(=O)c3ccccc3n2C)c(=O)n1C1CCCCCC1`: the EC50 was > 40 µM (inactive).
For the compound `CC(C)Cn1c(=O)c(C(=O)Nc2cnccn2)c(O)c2ccccc21`, the EC50 is > 40 µM (inactive).
Same read-out and setting: as for `O=C(Cn1nc(Cl)nc1Cl)c1cc2ccccc2oc1=O`, the figure is > 40 µM (inactive).
Still for that read-out and setting: as for `Cc1ccc(S(=O)(=O)C(C#N)c2nc3ccccc3nc2N2CCCC2)cc1` (centres undefined), the figure is > 40 µM (inactive); as for `O=C1C(Cl)=C(Nc2ccccc2O)C(=O)N1CCc1ccccc1`, > 40 µM (inactive).
On to `Cc1cc(NS(=O)(=O)c2ccc(CC(C)C)cc2)no1`, for which the EC50 was > 40 µM (inactive).
The same measure, in the same setting: as for `CC1(C)CC2c3cccc(C(=O)O)c3C(=O)N2c2c1ccc1ccccc21` (centres undefined), the figure is > 40 µM (inactive).
On the same count and under the same terms, the same measure for `CCn1c(=O)c2ccccc2n2c(SCC(=O)N3CCCc4ccccc43)nnc12`: > 40 µM (inactive).
Still for that read-out and setting: the same measure for `O=C(Nc1ccc(Br)cn1)c1cccc(-c2cc3ccccc3oc2=O)c1`: > 40 µM (inactive).
For the compound `COc1ccc(C(=O)Nc2ccc(OCc3ccccc3)cc2)cc1[N+](=O)[O-]`, the EC50 was > 40 µM (inactive).
Consider `O=c1c(Cl)c(NCCCO)cnn1-c1nc2ccccc2[nH]1`, for which the EC50 is > 40 µM (inactive).
With `CN(C)/C=C(/C(=O)c1ccc(Cl)cc1Cl)S(=O)(=O)c1ccc(Cl)cc1`, the EC50 is > 40 µM (inactive).
Turning to `CS(=O)(=O)c1nc(-c2ccco2)cc(C(F)(F)F)n1`, the EC50 was > 40 µM (inactive).
The same measure, in the same setting: as for `CS(=O)(=O)c1nc(-c2cccs2)cc(C(F)(F)F)n1`, the figure is > 40 µM (inactive); as for `CCOc1ccc(OCC(=O)c2c(O)c3ccccc3oc2=O)cc1`, > 40 µM (inactive); as for `O=C(/C(=C/O)N=Nc1ccc(Cl)cc1)c1ccncc1`, > 40 µM (inactive).
In the case of `COc1ccc(N(C(=O)C(C)C)S(=O)(=O)c2ccc(Cl)cc2)cc1`, the EC50 is > 40 µM (inactive).
On the same count and under the same terms, the same measure for `O=c1c2c3c(sc2ncn1/N=C/c1ccc([N+](=O)[O-])o1)CCCC3`: > 40 µM (inactive); for `O=C1c2ccccc2C(=O)N1Cc1nc2ccccc2c(=O)n1-c1ccc(Br)cn1`: > 40 µM (inactive).
One may read the pEC50 as −log10 of the EC50, conventionally taken in molar units. Regarding `O=C(c1c[nH]c(C(=O)C(Cl)(Cl)Cl)c1)c1ccccc1Cl`, the pEC50 was 5.14.
In the case of `CCOC(=O)c1nnn(-c2nonc2N)c1CN1CCc2ccccc2C1`, the EC50 was > 40 µM (inactive).
Turning to `O=C(NNC1=Nc2cccc3cccc1c23)c1ccccc1Br`, the EC50 is > 40 µM (inactive).
Still for that read-out and setting: as for `COc1cc(/C=c2\sc3nc(-c4ccncc4)nn3c2=O)ccc1OC(C)=O`, the figure is > 40 µM (inactive); as for `O=CN(/C=C1\Sc2ccccc2C1=O)Cc1ccccc1`, > 40 µM (inactive).
On the same count and under the same terms, as for `O=S(=O)(Nc1cccc2c1CCCC2)c1ccc(Cl)cc1`, the figure is > 40 µM (inactive).
On to `CN(C)/C=C(/C(=O)c1ccc(Cl)cc1Cl)S(=O)(=O)c1ccccc1`, for which the EC50 is > 40 µM (inactive).
On to `C=CS(=O)(=O)c1ccc(Oc2ccc(S(=O)(=O)C=C)cc2)cc1`, for which the EC50 was > 40 µM (inactive).
On to `O=C(CCl)N1c2ccccc2OCC1c1ccccc1` (centres undefined), for which the EC50 is > 40 µM (inactive).
Take `O=C(/C=C(\O)c1ccc(Cl)cc1)C(=O)NNC(=O)C(O)(c1ccccc1)c1ccccc1`: the EC50 was > 40 µM (inactive).
Still for that read-out and setting: the same measure for `COC(=O)C(=O)/C=C(\O)c1ccc(C)cc1`: > 40 µM (inactive); for `CCN1CCCC1CNC(=O)COc1cc(=O)n(C)c2ccccc12` (centres undefined): > 40 µM (inactive); for `C=CCN(CC=C)c1nc2ccccc2nc1C(C#N)C(=O)OC(C)C` (centres undefined): > 40 µM (inactive).
On the same count and under the same terms, as for `Cc1ccc(/C=C2/C(=O)NC(=O)N(CCc3ccc(F)cc3)C2=O)o1`, the figure is > 40 µM (inactive).
On the same count and under the same terms, the same measure for `O=C1NC(=O)N(CCC2=CCCCC2)C(=O)/C1=C\c1cccs1`: > 40 µM (inactive).
With `COCCn1c(SCC(=O)Nc2ccc(C)cc2)nc2c(oc3ccccc32)c1=O`, the EC50 is > 40 µM (inactive).
In the case of `CCOC(=O)/C(=C/c1ccc(OC(=O)c2ccccc2)cc1)C(C)=O`, the EC50 was > 40 µM (inactive).
On to `Oc1ccc2ccccc2c1C=Nc1ccc(N2CCOCC2)cc1`, for which the EC50 is > 40 µM (inactive).
The same measure, in the same setting: the same measure for `O=C(NCC1CCCO1)c1c(O)c2ccccc2[nH]c1=O` (centres undefined): > 40 µM (inactive).
In the case of `O=[N+]([O-])c1c(C(Cl)Cl)nn(-c2ccccc2)c1N1CCCC1`, the EC50 was > 40 µM (inactive).

For the origin of these results see PubChem BioAssay AID812 (SRMLSC, 2007).
